Earlier results in patent US20050095200A1, “Prokinetic drugs assistance to small intestine imaging” (priority 2003, published 2005).
Read-outs that look alike come from different tables or passages of the source. Values belong to the compound of their own block, whether it stands above or below them.

Experiments:
[1] = Medline cross-correlation with 12,155 bleeding publications
stomach = conditions: for subjects with barium emptied from the stomach after 60 minutes: 3 minutes after intake of barium; for food emptying half-life from the stomach: oral 15 mg Metoclopramide 30 minutes prior to tagged food
[2] = for half-life: in vivo
healthy subjects = conditions: about 10 mg Cisapride by mouth
[3] = healthy subjects, about 30 mg/day Cisapride by mouth (10x3)
[4] = manometric measurement, intravenous injection of about 10 mg Cisapride

cases with abdominal discomfort (in vivo): about 16%
cases with abdominal pain (in vivo): about 4%
half-life [2]: about 10 hours
bio-availability ([2]; oral): about 40%
Compound: COc1cc(N)c(Cl)cc1C(=O)NC1CCN(CCCOc2ccc(F)cc2)CC1OC (stereo not drawn) [Cisapride, CIS-4-AMINO-5-CHLORO-N-(1-(4-FLUOROPHENOXY) PROPYL)3 METHOXY-4-PIPERIDINYL)-2 METHOXYBENZAMIDE MONOHYDRATE]
reports of bleeding from the digestive tract caused by the drug [1]: not a single report of bleeding from the digestive tract caused by Cisapride
intensity of segmentary contraction (small intestine; daily dose of about 10 to 15 mg Cisapride): may be insufficient
change in the number of waves or in the wavelength (duodenum and jejunum; [3]): no change
increase of amplitude in mmHg in the duodenum and jejunum (duodenum and jejunum; [3]): over 18.4%
contraction amplitude in the jejunum increased by (duodenum and jejunum; [4]): about 43%
contraction frequency (duodenum and jejunum; [4]): increased
stomach emptying t1/2 (stomach; about 10 mg Cisapride by mouth): about 78 min
stomach emptying time, effect (stomach; about 10 mg Cisapride by mouth): not affected
emptying indigestible radio-opaque markers during the first hour (stomach; diabetics with gastroparesis, 5 mg Cisapride intravenously): lack of efficiency
subjects with barium emptied from the stomach after 60 minutes (stomach; intravenous 8 mg Cisapride): 85%
decrease of transit time of solid food (healthy subjects): about 20%

half-life [2]: about 5 hours
absorption when taken orally ([2]; oral): rapid and good
bio-availability ([2]; oral): about 77%
graph of plasma concentration at various times after oral administration ([2]; oral dose of 10 mg): linear
Compound: CCN(CC)CCNC(=O)c1cc(Cl)c(N)cc1OC [Metoclopramide, AMINO-4 CHLORO-5 N-(DIETHYLAMINO-2 ETHYL) METHOXY-2 BENZAMIDE]
reports of bleeding from the digestive tract caused by the drug [1]: not a single description of bleeding damage
intensity of segmentary contraction (small intestine; about single 20 mg dose of Metoclopramide): may be insufficient
safety profile (intravenous about 10 mg and oral about 20 mg): high safety profile
emptying indigestible radio-opaque markers during the first hour (stomach; diabetics with gastroparesis, 10 mg Metoclopramide intravenously): lack of efficiency
mean half-life of stomach emptying (stomach; diabetics with gastroparesis, semi-solid tagged substance, 30 mg Metoclopramide per day (3x10), down from 110): 1.12 h
food emptying half-life from the stomach (stomach; healthy subjects): 1.2 h
subjects with barium emptied from the stomach after 60 minutes (stomach; intravenous 10 mg Metoclopramide): 93.5%
food emptying half-life from the stomach (stomach; patients with reflux esophagitis): 0.993 h
